Results from patent US10175256B2, “Compositions and methods utilizing lysophosphatidylcholine scaffolds” (National University Of Singapore, priority 2013, dated 2019).
Several values for one entry are separate records, joined by “and”; a condition that tells them apart may be missing. Equal entries are not always repeated.

What was measured:
[1] = target: T1, mouse Mfsd2a (Mus musculus, UniProt Q9DA75); assay: Cell-based free fatty acid transport/uptake in Mfsd2a expressing HEK293 cells (mass spectrometry, TLC; Table 1); conditions: replicate columns; for Amount of each lipid species normalized to internal standard, mol percent in total phospholipid analysed / Amount of lipid species, mol percent in total phospholipid analysed: Mfsd2a expressing HEK293 cells
T1 construct: expressed in transfected cells; host or cells: HEK293
T1 sequence (Q9DA75 1-534): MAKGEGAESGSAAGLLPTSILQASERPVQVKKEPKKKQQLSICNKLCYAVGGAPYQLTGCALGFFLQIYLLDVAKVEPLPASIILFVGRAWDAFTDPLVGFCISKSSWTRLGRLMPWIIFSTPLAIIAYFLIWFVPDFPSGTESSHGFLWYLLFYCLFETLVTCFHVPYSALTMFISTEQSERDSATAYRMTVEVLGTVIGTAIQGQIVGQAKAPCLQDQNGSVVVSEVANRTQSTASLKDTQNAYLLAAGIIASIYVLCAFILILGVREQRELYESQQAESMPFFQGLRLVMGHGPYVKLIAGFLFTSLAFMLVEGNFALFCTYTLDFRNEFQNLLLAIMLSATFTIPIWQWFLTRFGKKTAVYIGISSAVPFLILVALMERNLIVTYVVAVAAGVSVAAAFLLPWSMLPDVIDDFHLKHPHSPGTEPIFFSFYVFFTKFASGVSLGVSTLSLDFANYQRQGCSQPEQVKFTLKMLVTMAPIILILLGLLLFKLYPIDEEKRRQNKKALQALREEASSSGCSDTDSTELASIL
Protocol: (§1) FIG. 12. […] Std: free [^14C]-DHA. b. TLC analysis of phospholipids and neutral lipids of HEK293 cells transfected with mouse Mfsd2a and mutants after overnight incubation with 100 μM [^14C]-oleate. TLC protocol used was described in Methods. PC: phosphatidylcholine, PE: phosphatidylethanolamine, TAG: triglyceride, CE: cholesteryl ester.
(§2) For tissue lipid analysis, brain, liver, and heart of female WT and KO mice with age of 7-8 weeks born to HET mothers, and brains from e18.5 embryos were collected and immediately frozen with liquid nitrogen until extraction. Lipid extraction was followed by chloroform/methanol method. For cell-based free fatty acid transport, lipids from HEK293 cells expressing mouse Mfsd2a and mock controls after overnight treatment with 100 μM docosahexaenoic, arachidonic, eicosapentaenoic, alpha-linolenic, linoleic, oleic, palmitic acids in BSA complex were extracted using HIP buffer (hexane:iso-propanol 3:2, per volume) and dried under N2 gas. Phospholipid species were measured by high performance liquid chromatography (HPLC) 1100 system (Agilent) coupled with an Triple Quadrupole/Ion Trap mass spectrometer (4000Qtrap, Applied Biosystem). Levels of individual phospholipid species were analyzed as described previously and quantified using spiked internal standards that includes PC-14:0/14:0, PE-14:0/14:0, PS-14:0/14:0 (Avanti Polar Lipids, Alabaster, Ala., USA), and dioctanoyl PI (Echelon Biosciences, Inc., Salt Lake City, Utah, USA).

[2] = test system: mouse Mfsd2a; assay: as above; conditions: MS, replicate columns; for Amount of each lipid species normalized to internal standard, mol percent in total phospholipid analysed / Amount of lipid species, mol percent in total phospholipid analysed: mock HEK293 cells
Protocol: as §1, §2

[3] = 100 uM Docosahexaenoic acid/BSA complex overnight, MS
[4] = 100 uM Docosahexaenoic acid/BSA complex overnight
[5] = Mfsd2a expressing HEK293 cells incubated with 100 uM Eicosapentaenoic fatty acid/BSA complex overnight, MS
[6] = 100 uM Alpha-linolenic fatty acid/BSA complex overnight
[7] = 100 uM Linoleic fatty acid/BSA complex overnight, MS
[8] = 100 uM Oleic fatty acid/BSA complex overnight, MS
[9] = mock HEK293 cells incubated with 100 uM Eicosapentaenoic fatty acid/BSA complex overnight
[10] = 100 uM Linoleic fatty acid/BSA complex overnight
[11] = 100 uM Oleic fatty acid/BSA complex overnight
[12] = Mfsd2a expressing HEK293 cells incubated with 100 uM Arachidonic fatty acid/BSA complex overnight, MS
[13] = mock HEK293 cells incubated with 100 uM Arachidonic fatty acid/BSA complex overnight
[14] = 100 uM Eicosapentaenoic acid/BSA complex overnight, MS
[15] = 100 uM Eicosapentaenoic acid/BSA complex overnight

CCCCCCCCCCCCCCCC(=O)OC[C@@H](O)COP(=O)(O)O[C@@H]1[C@H](O)[C@H](O)[C@@H](O)[C@H](O)[C@H]1O [LP116:0]
Amount of each lipid species normalized to internal standard, mol percent in total phospholipid analysed [1, 3]: 0.003896 mol percent and 0.00362 mol percent and 0.004663 mol percent and 0.002596 mol percent | Amount of each lipid species normalized to internal standard, mol percent in total phospholipid analysed [2, 4]: 0.003621 mol percent and 0.004425 mol percent and 0.003813 mol percent

CCCCCCCCCCCCCCCC(=O)OC[C@@H](O)COP(=O)(O)OC1[C@H](O)[C@H](O)C(O)[C@H](O)[C@H]1O (stereo partly shown) [LPI16:0]
Amount of each lipid species, mol percent in total phospholipid analysed [1, 5]: 0.00427 mol percent and 0.002996 mol percent and 0.00331 mol percent and 0.004891 mol percent | Amount of lipid species, mol percent in total phospholipid analysed [1, 6]: 0.002614 mol percent and 0.002235 mol percent and 0.003861 mol percent and 0.003103 mol percent | Amount of lipid species, mol percent in total phospholipid analysed [1, 7]: 0.002421 mol percent and 0.002583 mol percent and 0.004097 mol percent and 0.003665 mol percent | Amount of lipid species, mol percent in total phospholipid analysed [1, 8]: 0.003305 mol percent and 0.002531 mol percent and 0.002415 mol percent and 0.003238 mol percent | Amount of each lipid species, mol percent in total phospholipid analysed [2, 9]: 0.004685 mol percent and 0.004731 mol percent and 0.003589 mol percent | Amount of lipid species, mol percent in total phospholipid analysed [2, 10]: 0.003029 mol percent and 0.004291 mol percent and 0.00407 mol percent | Amount of lipid species, mol percent in total phospholipid analysed [2, 11]: 0.003369 mol percent and 0.003584 mol percent and 0.002627 mol percent

CCCCCCCCCCCCCCCCCC(=O)OC[C@@H](O)COP(=O)(O)O[C@@H]1[C@H](O)[C@H](O)[C@@H](O)[C@H](O)[C@H]1O [LPI18:0]
Amount of each lipid species, mol percent in total phospholipid analysed [1, 12]: 0.02508 mol percent and 0.03053 mol percent and 0.02667 mol percent and 0.03031 mol percent | Amount of each lipid species, mol percent in total phospholipid analysed [1, 5]: 0.02916 mol percent and 0.03081 mol percent and 0.03115 mol percent and 0.03571 mol percent | Amount of lipid species, mol percent in total phospholipid analysed [1, 6]: 0.03202 mol percent and 0.03143 mol percent and 0.03738 mol percent and 0.03614 mol percent | Amount of each lipid species normalized to internal standard, mol percent in total phospholipid analysed [1, 3]: 0.03395 mol percent and 0.02821 mol percent and 0.03136 mol percent and 0.02514 mol percent | Amount of lipid species, mol percent in total phospholipid analysed [1, 7]: 0.03216 mol percent and 0.02682 mol percent and 0.02809 mol percent and 0.04343 mol percent | Amount of lipid species, mol percent in total phospholipid analysed [1, 8]: 0.02837 mol percent and 0.02931 mol percent and 0.02721 mol percent and 0.02894 mol percent | Amount of each lipid species, mol percent in total phospholipid analysed [2, 13]: 0.03307 mol percent and 0.03421 mol percent and 0.02228 mol percent | Amount of each lipid species, mol percent in total phospholipid analysed [2, 9]: 0.03631 mol percent and 0.04031 mol percent and 0.03846 mol percent | Amount of each lipid species normalized to internal standard, mol percent in total phospholipid analysed [2, 4]: 0.0354 mol percent and 0.03721 mol percent and 0.03756 mol percent | Amount of lipid species, mol percent in total phospholipid analysed [2, 10]: 0.03365 mol percent and 0.03811 mol percent and 0.02692 mol percent | Amount of lipid species, mol percent in total phospholipid analysed [2, 11]: 0.02649 mol percent and 0.03117 mol percent and 0.0307 mol percent

CCCCCCCCCCCCCCCC(=O)OC[C@@H](O)COP(=O)(O)OC1[C@H](O)[C@H](O)C(O)[C@H](O)[C@H]1O (stereo partly shown) [LPI 16:0]
Amount of each lipid species, mol percent in total phospholipid analysed [1, 12]: 0.003583 mol percent and 0.003359 mol percent and 0.003156 mol percent and 0.002319 mol percent | Amount of each lipid species, mol percent in total phospholipid analysed [2, 13]: 0.003611 mol percent and 0.003895 mol percent and 0.00338 mol percent

CCCCCCCCCCCCCC/C=C\OC[C@@H](O)COP(=O)(O)OCCN [Lyso PE16:0p]
Amount of lipid species, mol percent in total phospholipid analysed [1, 6]: 3.296 mol percent and 3.844 mol percent and 2.809 mol percent and 2.876 mol percent | Amount of lipid species, mol percent in total phospholipid analysed [1, 10]: 1.997 mol percent and 3.121 mol percent and 2.462 mol percent and 2.098 mol percent | Amount of each lipid species normalized to internal standard, mol percent in total phospholipid analysed [1, 3]: 3.182 mol percent and 3.1158 mol percent and 3.231 mol percent and 3.697 mol percent | Amount of each lipid species normalized to internal standard, mol percent in total phospholipid analysed [1, 14]: 2.495 mol percent and 3.134 mol percent and 3.766 mol percent and 2.379 mol percent | Amount of lipid species, mol percent in total phospholipid analysed [1, 8]: 2.254 mol percent and 2.591 mol percent and 2.664 mol percent and 2.476 mol percent | Amount of each lipid species normalized to internal standard, mol percent in total phospholipid analysed [2, 4]: 2.843 mol percent and 2.772 mol percent and 2.42 mol percent | Amount of each lipid species normalized to internal standard, mol percent in total phospholipid analysed [2, 15]: 3.984 mol percent and 3.09 mol percent and 2.343 mol percent | Amount of lipid species, mol percent in total phospholipid analysed [2, 11]: 3.062 mol percent and 2.456 mol percent and 2.052 mol percent

CCCCCCCCCCCCCCCC/C=C\OC[C@@H](O)COP(=O)(O)OCCN [Lyso PE18:0p]
Amount of lipid species, mol percent in total phospholipid analysed [1, 6]: 0.5329 mol percent and 0.4653 mol percent and 0.37 mol percent and 0.5715 mol percent | Amount of lipid species, mol percent in total phospholipid analysed [1, 10]: 0.3438 mol percent and 0.3054 mol percent and 0.2525 mol percent and 0.1986 mol percent | Amount of each lipid species normalized to internal standard, mol percent in total phospholipid analysed [1, 3]: 0.3998 mol percent and 0.8078 mol percent and 0.4971 mol percent and 0.5526 mol percent | Amount of each lipid species normalized to internal standard, mol percent in total phospholipid analysed [1, 14]: 0.4834 mol percent and 0.7431 mol percent and 0.4828 mol percent and 0.4728 mol percent | Amount of lipid species, mol percent in total phospholipid analysed [1, 8]: 0.4754 mol percent and 0.4091 mol percent and 0.4604 mol percent and 0.341 mol percent | Amount of each lipid species normalized to internal standard, mol percent in total phospholipid analysed [2, 4]: 0.3791 mol percent and 0.5478 mol percent and 0.5875 mol percent | Amount of each lipid species normalized to internal standard, mol percent in total phospholipid analysed [2, 15]: 0.7711 mol percent and 0.3952 mol percent and 0.4625 mol percent | Amount of lipid species, mol percent in total phospholipid analysed [2, 11]: 0.336 mol percent and 0.5628 mol percent and 0.5097 mol percent

CCCCCCCCCCCCCCCCCC/C=C\OC[C@@H](O)COP(=O)(O)OCCN [Lyso PE20:0p]
Amount of lipid species, mol percent in total phospholipid analysed [1, 6]: 0.4144 mol percent and 0.2832 mol percent and 0.3195 mol percent and 0.1905 mol percent | Amount of lipid species, mol percent in total phospholipid analysed [1, 10]: 0.1851 mol percent and 0.2714 mol percent and 0.2999 mol percent and 0.1862 mol percent | Amount of each lipid species normalized to internal standard, mol percent in total phospholipid analysed [1, 3]: 0.1999 mol percent and 0.2885 mol percent and 0.2131 mol percent and 0.1906 mol percent | Amount of each lipid species normalized to internal standard, mol percent in total phospholipid analysed [1, 14]: 0.1715 mol percent and 0.2585 mol percent and 0.309 mol percent and 0.2898 mol percent | Amount of lipid species, mol percent in total phospholipid analysed [1, 8]: 0.184 mol percent and 0.3068 mol percent and 0.1973 mol percent and 0.2871 mol percent | Amount of each lipid species normalized to internal standard, mol percent in total phospholipid analysed [2, 4]: 0.1737 mol percent and 0.2656 mol percent and 0.1958 mol percent | Amount of each lipid species normalized to internal standard, mol percent in total phospholipid analysed [2, 15]: 0.4498 mol percent and 0.1976 mol percent and 0.1696 mol percent | Amount of lipid species, mol percent in total phospholipid analysed [2, 11]: 0.1867 mol percent and 0.2217 mol percent and 0.228 mol percent
